Assays:
Assay type in all cases: functional
Mus musculus [1] = assay: In vivo antitumor activity as percent tumor response at dose of 0.3 mg/kg, 24 hours post injection of SMT-F tumor in DBA/2 mice at day 1-2
Mus musculus [2] = assay: In vivo antitumor activity as percent tumor response at dose of 1.0 mg/kg, 24 hours post injection of SMT-F tumor in DBA/2 mice at day 30
Mus musculus [3] = assay: In vivo antitumor activity as percent tumor response at dose of 1.0 mg/kg, 24 hours post injection of SMT-F tumor in DBA/2 mice at day 1-2
Mus musculus [4] = assay: In vivo antitumor activity as percent tumor response at dose of 0.3 mg/kg, 24 hours post injection of SMT-F tumor in DBA/2 mice at day 7
Mus musculus [5] = assay: In vivo antitumor activity as percent tumor response at dose of 1.0 mg/kg, 24 hours post injection of SMT-F tumor in DBA/2 mice at day 7
Mus musculus [6] = assay: In vivo antitumor activity as percent tumor response at dose of 0.3 mg/kg, 24 hours post injection of SMT-F tumor in DBA/2 mice at day 30
Mus musculus [7] = assay: In vivo antitumor activity as percent tumor response at dose of 5.0 mg/kg, 3 hours post injection of SMT-F tumor in DBA/2 mice at day 1-2
Mus musculus [8] = assay: In vivo antitumor activity as percent tumor response at dose of 5.0 mg/kg, 24 hours post injection of SMT-F tumor in DBA/2 mice at day 30
Mus musculus [9] = assay: In vivo antitumor activity as percent tumor response at dose of 5.0 mg/kg, 24 hours post injection of SMT-F tumor in DBA/2 mice at day 7
Mus musculus [10] = assay: In vivo antitumor activity as percent tumor response at dose of 5.0 mg/kg, 3 hours post injection of SMT-F tumor in DBA/2 mice at day 7
Mus musculus [11] = assay: In vivo antitumor activity as percent tumor response at dose of 5.0 mg/kg, 3 hours post injection of SMT-F tumor in DBA/2 mice at day 30
Mus musculus [12] = assay: In vivo antitumor activity as percent tumor response at dose of 5.0 mg/kg, 24 hours post injection of SMT-F tumor in DBA/2 mice at day 1-2
Mus musculus [13] = assay: In vivo antitumor activity as percent tumor response at dose of 2.5 mg/kg, 24 hours post injection of SMT-F tumor in DBA/2 mice at day 30
Mus musculus [14] = assay: In vivo antitumor activity as percent tumor response at dose of 2.5 mg/kg, 24 hours post injection of SMT-F tumor in DBA/2 mice at day 1-2
Mus musculus [15] = assay: In vivo antitumor activity as percent tumor response at dose of 2.5 mg/kg, 24 hours post injection of SMT-F tumor in DBA/2 mice at day 7
Mus musculus [16] = assay: In vivo antitumor activity as percent tumor response at dose of 2.5 mg/kg 3h between injection and light treatment in mice at day 7
Mus musculus [17] = assay: In vivo antitumor activity as percent tumor response at dose of 2.5 mg/kg, 3 hours post injection of SMT-F tumor in DBA/2 mice at day 30
Mus musculus [18] = assay: In vivo antitumor activity as percent tumor response at dose of 2.5 mg/kg, 3 hours post injection of SMT-F tumor in DBA/2 mice at day 1-2
Mus musculus [19] = assay: In vivo antitumor activity as percent tumor response at dose of 0.3 mg/kg, 3 hours post injection of SMT-F tumor in DBA/2 mice at day 1-2
Mus musculus [20] = assay: In vivo antitumor activity as percent tumor response at dose of 0.3 mg/kg, 3 hours post injection of SMT-F tumor in DBA/2 mice at day 7
Mus musculus [21] = assay: In vivo antitumor activity as percent tumor response at dose of 0.3 mg/kg, 3 hours post injection of SMT-F tumor in DBA/2 mice at day 30
Mus musculus [22] = assay: In vivo antitumor activity as percent tumor response at dose of 0.25 mg/kg, 24 hours post injection of SMT-F tumor in DBA/2 mice at day 7
Mus musculus [23] = assay: In vivo antitumor activity as percent tumor response at dose of 0.25 mg/kg, 24 hours post injection of SMT-F tumor in DBA/2 mice at day 1-2
Mus musculus [24] = assay: In vivo antitumor activity as percent tumor response at dose of 0.25 mg/kg, 24 hours post injection of SMT-F tumor in DBA/2 mice at day 30

With `CCCCCCOC(C)C1=C(C)c2cc3nc(c(CC(=O)OC)c4[nH]c(cc5[nH]c(cc1n2)c(C)c5CC)c(C)c4C(=O)OC)[C@@H](CCC(=O)OC)[C@@H]3C` (stereo partly drawn) the Response (Mus musculus [1]) was 100%, the Response (Mus musculus [2]) was 0% and the Response (Mus musculus [3]) was 100%. For the same compound, the Response (Mus musculus [4]) was 0%, the Response (Mus musculus [5]) was 75% and the Response (Mus musculus [6]) was 0%.
In the case of `C=Cc1c(C)c2cc3nc(c4c5nc(cc6[nH]c(cc1[nH]2)c(C)c6CC)C(C)=C5C(=S)C4)[C@@H](CCC(=O)OC)[C@@H]3C`, the Response (Mus musculus [7]) is reported as 100%, the Response (Mus musculus [8]) is reported as 0% and the Response (Mus musculus [9]) is reported as 0%. It also gave a Response (Mus musculus [10]) of 100%, a Response (Mus musculus [11]) of 80% and a Response (Mus musculus [12]) of 0%.
With `CCc1c(C)c2cc3[nH]c(cc4nc(c5c6nc(cc1[nH]2)C(C)=C6C(=O)C5)[C@@H](CCC(=O)OC)[C@@H]4C)c(C)c3C=O` the Response (Mus musculus [13]) was 0%, the Response (Mus musculus [14]) was 0% and the Response (Mus musculus [15]) was 0%. For the same compound, the Response (Mus musculus [16]) was 67%, the Response (Mus musculus [17]) was 0% and the Response (Mus musculus [18]) was 67%.
In the case of `CCc1c(C)c2cc3[nH]c(cc4nc(c(CC(=O)OC)c5nc(cc1[nH]2)C(C)=C5C(=O)OC)[C@@H](CCC(=O)OC)[C@@H]4C)c(C)c3C=O`, the Response (Mus musculus [8]) is reported as 0%, the Response (Mus musculus [9]) is reported as 0% and the Response (Mus musculus [12]) is reported as 0%.
In the case of `CCCCCCOCC1=C(C)c2cc3nc(c4c5[nH]c(cc6[nH]c(cc1n2)c(C)c6CC)c(C)c5C(=O)C4)[C@@H](CCC(=O)OC)[C@@H]3C`, the Response (Mus musculus [1]) is reported as 100%, the Response (Mus musculus [4]) is reported as 33% and the Response (Mus musculus [6]) is reported as 0%.
In the case of `CCc1c(C)c2cc3[nH]c(cc4nc(c5c6nc(cc1[nH]2)C(C)=C6C(=O)[C@@H]5C(=O)OC)[C@@H](CCC(=O)OC)[C@@H]4C)c(C)c3C=O`, the Response (Mus musculus [8]) is reported as 0%, the Response (Mus musculus [9]) is reported as 60% and the Response (Mus musculus [12]) is reported as 80%.
Compound `CCc1c(C)c2cc3nc(c4c5nc(cc6[nH]c(cc1[nH]2)[C@@](C)(O)[C@]6(O)CC)C(C)=C5C(=O)C4)[C@@H](CCC(=O)OC)[C@@H]3C` has a Response (Mus musculus [19]) of 0%, a Response (Mus musculus [20]) of 0% and a Response (Mus musculus [21]) of 0%.
In the case of `CCCCCCOC(C)C1=C(C)c2cc3nc(c4c5[nH]c(cc6[nH]c(cc1n2)c(C)c6CC)c(C)c5C(=O)C4)[C@@H](CCC(=O)OC)[C@@H]3C` (stereo partly drawn), the Response (Mus musculus [1]) is reported as 100%, the Response (Mus musculus [4]) is reported as 100% and the Response (Mus musculus [22]) is reported as 85%. The Response (Mus musculus [6]) was 50%, the Response (Mus musculus [23]) was 100% and the Response (Mus musculus [24]) was 35%.
`CCCCCCOC(C)C1=C(C)c2cc3nc(c4c5[nH]c(cc6[nH]c(cc1n2)c(C)c6CC)c(C)c5C(=O)[C@@H]4C(=O)OC)[C@@H](CCC(=O)OC)[C@@H]3C` (stereo partly drawn) showed a Response (Mus musculus [1]) of 100%, a Response (Mus musculus [2]) of 50% and a Response (Mus musculus [3]) of 100%. The Response (Mus musculus [4]) was 90%, the Response (Mus musculus [19]) was 100% and the Response (Mus musculus [20]) was 100%. For the same compound, the Response (Mus musculus [5]) was 100%, the Response (Mus musculus [6]) was 0% and the Response (Mus musculus [21]) was 20%.
For `CCCCCCOC(C)c1c(C)c2cc3nc(c4c5nc(cc6[nH]c(cc1[nH]2)[C@@](C)(O)[C@]6(O)CC)C(C)=C5C(=O)C4)[C@@H](CCC(=O)OC)[C@@H]3C` (stereo partly drawn), the Response (Mus musculus [19]) was 0%, the Response (Mus musculus [20]) was 0% and the Response (Mus musculus [21]) was 0%.

Reference: ChEMBL document CHEMBL1150987, “Structure/activity relationships among photosensitizers related to pheophorbides and bacteriopheophorbides” (1992)
